Experiments:
Assay in all cases: KinomeScan profiling
Assay type in all cases: binding
[1] = molecular target: PYK2 (Homo sapiens, UniProt Q14289); conditions: PYK2, 1 μM; read-out: % control
Outline: (§1)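 The panel spans 468 kinases, and each inventive compound was applied at 1 μM from DMSO. Lower % control means stronger binding; the activity cut-off is set at less than 35%.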

[2] = molecular target: T1, TSSK3 (Homo sapiens, UniProt Q96PN8); conditions: TSSK3, 1 μM; read-out: % control
T1 sequence (Q96PN8 1-268): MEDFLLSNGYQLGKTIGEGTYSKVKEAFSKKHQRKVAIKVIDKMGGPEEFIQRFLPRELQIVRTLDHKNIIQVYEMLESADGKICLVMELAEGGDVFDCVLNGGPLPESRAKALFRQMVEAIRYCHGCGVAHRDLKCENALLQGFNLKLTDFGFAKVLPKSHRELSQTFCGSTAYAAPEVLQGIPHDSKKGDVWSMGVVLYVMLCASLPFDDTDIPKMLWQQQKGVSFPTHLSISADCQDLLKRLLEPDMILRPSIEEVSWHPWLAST
Outline: as §1

[3] = molecular target: T2, NLK (Homo sapiens, UniProt Q9UBE8); conditions: read-out: % control
T2 sequence (Q9UBE8 1-527): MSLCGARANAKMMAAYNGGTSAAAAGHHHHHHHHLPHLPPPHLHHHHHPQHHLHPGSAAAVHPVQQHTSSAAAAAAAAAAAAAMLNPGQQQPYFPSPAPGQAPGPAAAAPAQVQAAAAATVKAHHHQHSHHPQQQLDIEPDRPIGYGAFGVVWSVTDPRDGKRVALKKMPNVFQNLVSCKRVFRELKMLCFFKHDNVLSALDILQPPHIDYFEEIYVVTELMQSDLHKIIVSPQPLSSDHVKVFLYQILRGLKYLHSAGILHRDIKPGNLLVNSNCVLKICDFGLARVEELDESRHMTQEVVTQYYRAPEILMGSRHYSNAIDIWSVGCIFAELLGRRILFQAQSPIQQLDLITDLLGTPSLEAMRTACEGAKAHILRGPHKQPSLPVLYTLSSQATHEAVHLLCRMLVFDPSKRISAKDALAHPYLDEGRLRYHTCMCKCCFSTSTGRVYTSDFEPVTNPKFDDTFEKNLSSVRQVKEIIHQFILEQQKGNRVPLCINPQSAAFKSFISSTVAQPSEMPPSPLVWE
Outline: as §1

[4] = molecular target: CAMKK2 (Homo sapiens, UniProt Q96RR4); conditions: CAMKK2, 1 μM; read-out: % control
Chain of CAMKK2 (Q96RR4 whole entry): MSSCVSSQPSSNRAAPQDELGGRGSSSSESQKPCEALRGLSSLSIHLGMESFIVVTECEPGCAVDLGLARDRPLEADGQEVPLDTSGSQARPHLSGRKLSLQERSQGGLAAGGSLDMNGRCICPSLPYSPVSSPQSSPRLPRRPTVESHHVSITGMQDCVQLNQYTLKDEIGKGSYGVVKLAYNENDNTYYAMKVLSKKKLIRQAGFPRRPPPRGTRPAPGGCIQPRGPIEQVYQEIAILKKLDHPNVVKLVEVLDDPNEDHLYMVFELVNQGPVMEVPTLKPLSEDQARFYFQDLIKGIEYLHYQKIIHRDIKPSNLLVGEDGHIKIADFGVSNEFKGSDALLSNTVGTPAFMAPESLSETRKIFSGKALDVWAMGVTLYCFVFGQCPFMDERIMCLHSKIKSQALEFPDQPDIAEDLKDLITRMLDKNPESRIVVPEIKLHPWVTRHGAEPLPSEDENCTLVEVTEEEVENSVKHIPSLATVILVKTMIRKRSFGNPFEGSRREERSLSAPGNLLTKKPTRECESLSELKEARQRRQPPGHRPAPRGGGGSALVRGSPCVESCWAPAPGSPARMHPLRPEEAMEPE
Outline: as §1

[5] = molecular target: T3, TGFBR1 (Homo sapiens, UniProt P36897); conditions: TGFBR1, 1 μM; read-out: % control
T3 sequence (P36897 34-503): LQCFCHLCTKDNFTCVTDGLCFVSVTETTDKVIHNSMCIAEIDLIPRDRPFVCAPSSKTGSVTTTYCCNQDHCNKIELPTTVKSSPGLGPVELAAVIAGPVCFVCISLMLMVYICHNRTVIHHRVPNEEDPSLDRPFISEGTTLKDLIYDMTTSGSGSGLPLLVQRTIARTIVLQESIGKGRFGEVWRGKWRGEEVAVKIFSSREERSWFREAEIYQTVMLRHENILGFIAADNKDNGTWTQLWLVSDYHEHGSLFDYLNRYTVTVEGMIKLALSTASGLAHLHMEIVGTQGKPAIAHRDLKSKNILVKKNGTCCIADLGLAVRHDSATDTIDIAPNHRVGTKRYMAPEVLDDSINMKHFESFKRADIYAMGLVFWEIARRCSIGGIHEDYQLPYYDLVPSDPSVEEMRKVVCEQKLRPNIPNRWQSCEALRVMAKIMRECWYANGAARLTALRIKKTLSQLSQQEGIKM
Outline: as §1

[6] = molecular target: T4, EPHA3 (Homo sapiens, UniProt P29320); conditions: EPHA3, 1 μM; read-out: % control
T4 sequence (P29320 21-983): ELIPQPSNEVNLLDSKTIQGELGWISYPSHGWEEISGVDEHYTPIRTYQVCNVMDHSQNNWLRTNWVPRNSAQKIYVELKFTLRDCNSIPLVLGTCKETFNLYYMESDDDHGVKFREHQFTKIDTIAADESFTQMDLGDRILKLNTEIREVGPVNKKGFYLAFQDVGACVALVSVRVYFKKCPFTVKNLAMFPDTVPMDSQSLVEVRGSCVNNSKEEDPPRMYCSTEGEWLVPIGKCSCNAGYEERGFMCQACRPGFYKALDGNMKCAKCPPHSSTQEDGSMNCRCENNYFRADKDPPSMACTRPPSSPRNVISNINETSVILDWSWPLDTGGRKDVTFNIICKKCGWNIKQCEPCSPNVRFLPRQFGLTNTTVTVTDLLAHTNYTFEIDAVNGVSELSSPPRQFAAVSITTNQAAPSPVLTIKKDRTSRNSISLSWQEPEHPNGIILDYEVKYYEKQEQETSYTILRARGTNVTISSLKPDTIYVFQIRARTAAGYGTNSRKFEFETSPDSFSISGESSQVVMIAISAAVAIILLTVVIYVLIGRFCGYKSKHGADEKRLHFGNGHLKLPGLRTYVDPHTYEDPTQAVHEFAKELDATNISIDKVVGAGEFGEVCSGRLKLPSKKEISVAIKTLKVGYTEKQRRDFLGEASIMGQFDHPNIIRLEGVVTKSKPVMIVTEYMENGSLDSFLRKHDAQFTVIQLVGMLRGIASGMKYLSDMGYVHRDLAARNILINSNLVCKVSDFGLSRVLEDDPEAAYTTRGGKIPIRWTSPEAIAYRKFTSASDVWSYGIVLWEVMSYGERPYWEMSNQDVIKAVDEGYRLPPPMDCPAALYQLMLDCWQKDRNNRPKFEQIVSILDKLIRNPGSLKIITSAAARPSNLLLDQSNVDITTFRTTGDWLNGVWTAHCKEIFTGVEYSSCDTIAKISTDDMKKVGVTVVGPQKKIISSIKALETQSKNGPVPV
Outline: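 Percent-of-control values derive from RLU, calculated as (test − positive)/(negative − positive) × 100, where DMSO defines 100% and a positive control compound defines 0%. Each compound was tested at 1 μM in the 468-kinase panel; sub-35% readings indicate activity.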

[7] = molecular target: CDC2L5 (Homo sapiens, UniProt Q14004); conditions: CDC2L5, 1 μM; read-out: % control
Chain of CDC2L5 (Q14004 whole entry): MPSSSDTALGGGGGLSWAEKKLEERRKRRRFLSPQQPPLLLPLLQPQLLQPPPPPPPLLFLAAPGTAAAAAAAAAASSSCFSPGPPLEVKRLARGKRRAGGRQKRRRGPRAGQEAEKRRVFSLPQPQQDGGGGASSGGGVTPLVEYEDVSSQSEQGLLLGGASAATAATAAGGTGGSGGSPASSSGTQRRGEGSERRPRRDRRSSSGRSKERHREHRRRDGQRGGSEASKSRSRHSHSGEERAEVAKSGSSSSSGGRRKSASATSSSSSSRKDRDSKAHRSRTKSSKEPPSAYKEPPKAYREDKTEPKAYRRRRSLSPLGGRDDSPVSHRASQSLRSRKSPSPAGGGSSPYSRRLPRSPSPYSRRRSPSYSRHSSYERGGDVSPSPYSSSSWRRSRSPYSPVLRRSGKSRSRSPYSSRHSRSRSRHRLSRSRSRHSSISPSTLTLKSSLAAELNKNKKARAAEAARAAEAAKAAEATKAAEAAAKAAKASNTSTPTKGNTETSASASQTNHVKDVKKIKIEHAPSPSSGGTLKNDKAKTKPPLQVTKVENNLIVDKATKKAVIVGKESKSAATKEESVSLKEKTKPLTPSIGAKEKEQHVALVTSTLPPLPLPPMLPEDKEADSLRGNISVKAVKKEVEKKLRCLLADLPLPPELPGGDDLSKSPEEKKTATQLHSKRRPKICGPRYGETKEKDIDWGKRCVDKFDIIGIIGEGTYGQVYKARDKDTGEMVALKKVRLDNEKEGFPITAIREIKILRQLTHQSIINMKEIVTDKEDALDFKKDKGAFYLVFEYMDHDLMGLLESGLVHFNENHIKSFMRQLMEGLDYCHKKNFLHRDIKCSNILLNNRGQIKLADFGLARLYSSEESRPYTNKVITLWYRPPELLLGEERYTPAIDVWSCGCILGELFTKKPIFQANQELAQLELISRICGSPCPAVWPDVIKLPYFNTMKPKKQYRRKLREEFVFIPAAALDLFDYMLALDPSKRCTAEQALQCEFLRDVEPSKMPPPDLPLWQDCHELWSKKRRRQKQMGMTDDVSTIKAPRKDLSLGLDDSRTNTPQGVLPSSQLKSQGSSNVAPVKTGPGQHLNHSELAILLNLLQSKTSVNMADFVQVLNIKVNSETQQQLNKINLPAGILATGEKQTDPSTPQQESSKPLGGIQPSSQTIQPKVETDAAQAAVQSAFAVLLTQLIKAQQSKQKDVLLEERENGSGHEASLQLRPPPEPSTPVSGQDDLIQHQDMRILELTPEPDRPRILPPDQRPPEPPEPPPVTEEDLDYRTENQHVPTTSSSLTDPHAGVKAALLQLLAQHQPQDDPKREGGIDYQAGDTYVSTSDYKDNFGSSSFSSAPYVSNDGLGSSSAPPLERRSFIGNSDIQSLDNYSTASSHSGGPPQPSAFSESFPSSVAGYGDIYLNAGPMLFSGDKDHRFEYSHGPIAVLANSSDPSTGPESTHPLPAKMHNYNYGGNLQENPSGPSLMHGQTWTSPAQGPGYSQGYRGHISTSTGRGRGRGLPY
Outline: as §1

[8] = molecular target: CDKL1 (Homo sapiens, UniProt Q00532); conditions: CDKL1, 1 μM; read-out: % control
Chain of CDKL1 (Q00532 whole entry): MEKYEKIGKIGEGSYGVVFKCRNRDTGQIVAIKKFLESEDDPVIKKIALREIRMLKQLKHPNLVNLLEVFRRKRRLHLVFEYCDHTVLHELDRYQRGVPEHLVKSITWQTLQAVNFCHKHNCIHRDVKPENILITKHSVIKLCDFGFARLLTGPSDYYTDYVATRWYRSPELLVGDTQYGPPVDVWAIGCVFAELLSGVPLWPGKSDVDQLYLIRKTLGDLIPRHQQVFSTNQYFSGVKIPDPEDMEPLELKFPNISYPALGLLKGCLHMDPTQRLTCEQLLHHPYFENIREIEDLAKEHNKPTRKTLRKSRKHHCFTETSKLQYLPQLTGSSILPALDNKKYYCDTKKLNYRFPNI
Outline: as §1

[9] = molecular target: BTK (Homo sapiens, UniProt Q06187); conditions: read-out: % control
Chain of BTK (Q06187 whole entry): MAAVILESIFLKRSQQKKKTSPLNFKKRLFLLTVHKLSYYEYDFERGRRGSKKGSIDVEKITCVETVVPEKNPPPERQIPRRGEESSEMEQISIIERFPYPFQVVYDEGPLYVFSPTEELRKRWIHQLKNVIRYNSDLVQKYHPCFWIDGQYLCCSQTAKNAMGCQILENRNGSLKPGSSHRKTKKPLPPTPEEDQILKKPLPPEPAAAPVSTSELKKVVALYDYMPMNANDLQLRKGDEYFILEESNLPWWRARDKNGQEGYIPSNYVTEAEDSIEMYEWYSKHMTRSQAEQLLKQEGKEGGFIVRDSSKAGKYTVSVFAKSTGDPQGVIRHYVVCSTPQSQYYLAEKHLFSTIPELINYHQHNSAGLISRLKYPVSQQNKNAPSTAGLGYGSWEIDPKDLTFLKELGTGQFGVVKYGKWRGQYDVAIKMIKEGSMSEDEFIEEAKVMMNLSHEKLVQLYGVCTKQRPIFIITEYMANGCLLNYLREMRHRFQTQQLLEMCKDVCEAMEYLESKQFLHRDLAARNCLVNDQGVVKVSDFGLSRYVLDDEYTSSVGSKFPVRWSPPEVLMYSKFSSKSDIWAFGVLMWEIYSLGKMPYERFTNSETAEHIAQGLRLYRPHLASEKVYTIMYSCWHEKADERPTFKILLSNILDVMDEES
Outline: as §1

Chain of PYK2 (Q14289 whole entry): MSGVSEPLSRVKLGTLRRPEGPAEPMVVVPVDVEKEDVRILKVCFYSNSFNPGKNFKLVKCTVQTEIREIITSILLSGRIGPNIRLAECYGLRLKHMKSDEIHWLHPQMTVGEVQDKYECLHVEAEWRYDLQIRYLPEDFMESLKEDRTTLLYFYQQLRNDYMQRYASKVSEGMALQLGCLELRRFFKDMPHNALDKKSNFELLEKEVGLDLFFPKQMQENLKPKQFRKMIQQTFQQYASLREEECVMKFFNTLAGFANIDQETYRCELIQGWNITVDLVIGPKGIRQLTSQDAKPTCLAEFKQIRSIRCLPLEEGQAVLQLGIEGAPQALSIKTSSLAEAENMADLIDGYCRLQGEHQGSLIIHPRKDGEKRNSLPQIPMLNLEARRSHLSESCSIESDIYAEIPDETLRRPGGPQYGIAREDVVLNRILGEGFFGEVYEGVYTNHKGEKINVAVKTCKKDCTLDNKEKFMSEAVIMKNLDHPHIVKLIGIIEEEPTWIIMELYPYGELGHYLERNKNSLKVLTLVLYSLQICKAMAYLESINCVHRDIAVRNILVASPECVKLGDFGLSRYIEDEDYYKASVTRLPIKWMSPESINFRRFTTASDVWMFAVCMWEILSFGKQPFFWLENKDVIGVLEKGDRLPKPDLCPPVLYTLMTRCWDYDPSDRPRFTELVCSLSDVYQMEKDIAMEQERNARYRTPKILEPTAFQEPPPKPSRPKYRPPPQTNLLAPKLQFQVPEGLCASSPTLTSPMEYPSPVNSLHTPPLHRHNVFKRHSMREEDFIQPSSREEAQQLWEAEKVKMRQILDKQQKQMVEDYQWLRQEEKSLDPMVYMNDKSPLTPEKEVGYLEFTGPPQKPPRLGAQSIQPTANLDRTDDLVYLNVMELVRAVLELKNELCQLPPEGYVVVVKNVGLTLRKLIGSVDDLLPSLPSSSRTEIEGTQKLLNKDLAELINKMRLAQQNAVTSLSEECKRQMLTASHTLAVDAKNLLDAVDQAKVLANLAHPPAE

Row | Structure (SMILES) | remaining binding at 1 µM [1] | remaining binding at 1 µM [2] | remaining binding at 1 µM [3] | remaining binding at 1 µM [4] | remaining binding at 1 µM [5] | remaining binding at 1 µM [6] | remaining binding at 1 µM [7] | remaining binding at 1 µM [8] | remaining binding at 1 µM [9]
1 | O=C(c1ccc(-c2cnc3[nH]cc(Cl)c3c2NC2CCCC2)cc1)N1CCC(N2CCOCC2)CC1 [Compound 101, (4-(3-chloro-4-(cyclopentylamino)-1H-pyrrolo[2,3-b]pyridin-5-yl)phenyl)(4-morpholinopiperidin-1-yl)methanone] | 78% | 98% | 88% | 88% | 100% | 82% | 2.1% | 100% | 100%
2 | CNc1c(-c2cnn([C@H]3CCN(C(C)=O)C[C@@H]3F)c2)cnc2[nH]cc(Cl)c12 [Compound 77, 1-((3S,4S)-4-(4-(3-chloro-4-(methylamino)-1H-pyrrolo[2,3-b]pyridin-5-yl)-1H-pyrazol-1-yl)-3-fluoropiperidin-1-yl)ethan-1-one] | 89% | 65% | 95% | 79% | 60% | 90% | 100% | 76% | 68%
3 | CNc1c(-c2ccc(C(=O)N3CCC(N4CCOCC4)CC3)cc2)cnc2[nH]cc(Cl)c12 [Compound 96, (4-(3-chloro-4-(methylamino)-1H-pyrrolo[2,3-b]pyridin-5-yl)phenyl)(4-morpholinopiperidin-1-yl)methanone] | 92% | 45% | 100% | 82% | 56% | 100% | 100% | 78% | 78%

From patent US12275731B2, “Azaindole inhibitors of wild-type and mutant forms of LRRK2” (DANA-FARBER CANCER INSTITUTE, INC., priority 2018, dated 2025)
